{"source": "patent US10624278B2", "about": "“Cultivation method for the rapid propagation of Davidia involucrata winter buds” (Mianyang Teachers' College, priority 2017, dated 2020)", "assay_type_in_all_cases": "in vivo", "key": {"[1]": {"tested_on": "Davidia involucrata winter buds", "experiment": "disinfecting and sterilizing of the winter buds", "experimental": "disinfecting and sterilizing of the winter buds: immersing the plurality of winter buds collected in the field into a detergent solution with a concentration of […] for 2 minutes, gently cleaning the bud scales using a soft brush, rinsing for 2 hours with running water, and then immersing the winter buds using the 0.1% mercuric chloride solution for 20 minutes on a clean bench, rinsing with sterile water for more than 5 times, blotting up the water on the surface of the explants with sterile filter paper, stripping up all the scales of the winter buds using a tweezer to obtain the buds, treating with 75% ethanol and mercuric chloride solution or treating with mercuric chloride solution only. Wherein each treatment is inoculated into 30 bottles and 2 explants in each bottle. The specific progress is as follows: […]"}, "[2]": {"tested_on": "Davidia involucrata saplings", "experiment": "rooting cultivation (orthogonal experiment)", "parameters": "unit not given here", "details": "for K1: mean rooting ratio at level 1 of the factor (¼MS, IBA 1.0, 6-BA 0, AC 0.5); for K2: mean rooting ratio at level 2 of the factor (WPM, IBA 2.0, 6-BA 1.0, AC 1.0); for K3: mean rooting ratio at level 3 of the factor (White, IBA 3.0, 6-BA 1.5, AC 1.5); for R: range of K values of the factor, rooting ratio", "experimental": "inoculating the plurality of Davidia involucrata saplings in good condition obtained in step (5) in the White, WPM and 1/4 MS medium (See Table 10) containing different concentrations of IBA, 6-BA and AC at the temperature of 24±1° C. and illuminating for 10 hours per day at 2000 1× to cultivate the plurality of Davidia involucrata saplings in good condition obtained in step (5) until rooting. Analyzing the rooting results (See Table 11)."}, "[3]": {"tested_on": "Davidia involucrata saplings", "experiment": "cultivating the strong seedlings", "parameters": "unit not given here", "details": "for K1: mean average height at level 1 of the factor (GA3 0.5, NAA 0.5, 6-BA 0.2); for K2: mean average height at level 2 of the factor (GA3 1.0, NAA 1.0, 6-BA 0.6); for K3: mean average height at level 3 of the factor (GA3 1.5, NAA 1.5, 6-BA 1.0); for R: range of K values of the factor, average height", "experimental": "inoculating the plurality of Davidia involucrata saplings obtained in step (4) in nine groups of WPM medium (See Table 8) containing different concentrations of NAA, 6-BA and GA3 at the temperature of 24±1° C. and illuminating for 10 hours per day at 2000 1× to cultivate the plurality of Davidia involucrata saplings obtained in step (4) for 36 days. The amount of AC added for each group of WPM medium is 1.0 g/L. Calculating the average height of the saplings (See Table 9)."}, "[4]": {"details": "Disposal 1: mercuric chloride only, treating time 4 min"}, "[5]": {"details": "Disposal 2: mercuric chloride only, treating time 5 min"}, "[6]": {"details": "Disposal 3: mercuric chloride only, treating time 6 min"}, "[7]": {"details": "Disposal 4: mercuric chloride only, treating time 7 min"}, "[8]": {"details": "Disposal 5: mercuric chloride only, treating time 8 min"}}}
{"compound": "[Cl][Hg][Cl]", "note": "[0.01% mercuric chloride solution, mercuric chloride]", "values": [{"measurement": "Death rate (%)", "setting": "[1]; [4]", "value": 3, "unit": "%"}, {"measurement": "Pollution rate (%)", "setting": "[1]; [4]", "value": 38, "unit": "%"}, {"measurement": "Death rate (%)", "setting": "[1]; [5]", "value": 5, "unit": "%"}, {"measurement": "Pollution rate (%)", "setting": "[1]; [5]", "value": 27.2, "unit": "%"}, {"measurement": "Death rate (%)", "setting": "[1]; [6]", "value": 6, "unit": "%"}, {"measurement": "Pollution rate (%)", "setting": "[1]; [6]", "value": 18, "unit": "%"}, {"measurement": "Death rate (%)", "setting": "[1]; [7]", "value": 36, "unit": "%"}, {"measurement": "Pollution rate (%)", "setting": "[1]; [7]", "value": 16, "unit": "%"}, {"measurement": "Death rate (%)", "setting": "[1]; [8]", "value": 45, "unit": "%"}, {"measurement": "Pollution rate (%)", "setting": "[1]; [8]", "value": 10, "unit": "%"}]}
{"compound": "c1ccc(CNc2ncnc3[nH]cnc23)cc1", "note": "[6-BA]", "values": [{"measurement": "K1", "setting": "[2]", "value": 48.340}, {"measurement": "K2", "setting": "[2]", "value": 67.907}, {"measurement": "K3", "setting": "[2]", "value": 57.150}, {"measurement": "R", "setting": "[2]", "value": 19.567}, {"measurement": "K1", "setting": "[3]", "value": 1.820}, {"measurement": "K2", "setting": "[3]", "value": 1.697}, {"measurement": "K3", "setting": "[3]", "value": 1.897}, {"measurement": "R", "setting": "[3]", "value": 0.200}]}
{"compound": "C=C1C[C@]23C[C@@]1(O)CC[C@H]2[C@@]12C=C[C@H](O)[C@@](C)(C(=O)O1)[C@H]2[C@@H]3C(=O)O", "note": "[GA3]", "values": [{"measurement": "K1", "setting": "[3]", "value": 1.663}, {"measurement": "K2", "setting": "[3]", "value": 2.037}, {"measurement": "K3", "setting": "[3]", "value": 1.713}, {"measurement": "R", "setting": "[3]", "value": 0.374}]}
{"compound": "O=C(O)CCCc1c[nH]c2ccccc12", "note": "[IBA]", "values": [{"measurement": "K1", "setting": "[2]", "value": 55.663}, {"measurement": "K2", "setting": "[2]", "value": 62.337}, {"measurement": "K3", "setting": "[2]", "value": 55.397}, {"measurement": "R", "setting": "[2]", "value": 6.940}]}
{"compound": "O=C(O)Cc1cccc2ccccc12", "note": "[NAA]", "values": [{"measurement": "K1", "setting": "[3]", "value": 1.537}, {"measurement": "K2", "setting": "[3]", "value": 2.067}, {"measurement": "K3", "setting": "[3]", "value": 1.810}, {"measurement": "R", "setting": "[3]", "value": 0.530}]}
